Laboratory results as given in patent US6486203B1, “Treating inflammatory diseases of the head and neck with cyclooxygenase-2 inhibitors” (Cornell Research Foundation, Inc., priority 1998, dated 2002).

Experiments:
Assay type in all cases: in vivo, human
[1] = system: sinusitis; test: Treatment of a patient with sinusitis (Example III); conditions: person with sinusitis; 200 mg orally twice a day, together with amoxicillin; after taking one dose
Procedure: A person presents to their physician complaining of fever and headache. On physical examination, they have tenderness over their maxillary sinus. A diagnosis of sinusitis is made. The patient is treated with amoxicillin 500 mg orally every eight hours for ten days. They are also given Celebrex 200 mg orally twice a day for seven days.

[2] = system: viral pharyngitis; test: Treatment of a patient with viral pharyngitis with lozenges (Example II); conditions: person with viral pharyngitis; lozenges containing 100 mg four times a day
Procedure: A person has symptoms of a sore throat. They are evaluated by their physician who detects an erythematous pharynx. A diagnosis of viral pharyngitis is made.

[3] = system: tonsillitis; test: Treatment of a patient with tonsillitis (Example I); conditions: person with tonsillitis; 200 mg orally twice a day, together with amoxicillin; after taking one dose
Procedure: A person has symptoms of a sore throat and fever. They are evaluated by a physician who notes inflamed tonsils and diagnoses tonsillitis. The patient is treated with amoxicillin 500 mg orally every eight hours for ten days. Additionally, they are given Celebrex (celecoxib) 200 mg orally twice a day for seven days.

[4] = system: sore throat; test: Treatment of sore throat with resveratrol lozenges (Example IV); conditions: person with sore throat; lozenges of 1 gram, four per day for two days
Description: A person has symptoms of a sore throat.

[5] = system: periodontitis; test: Treatment of a patient with periodontitis with resveratrol lozenges (Example V); conditions: tobacco-smoking person with periodontitis; lozenges of 1 gram twice a day; four months later
Description: A […] tobacco-smoking […] is referred to a periodontist for bleeding gums and is diagnosed with periodontitis.

SMILES: Cc1ccc(-c2cc(C(F)(F)F)nn2-c2ccc(S(N)(=O)=O)cc2)cc1 [Celebrex, 4-[5-(4-Methylphenyl)-3-(trifluoromethyl)-1H-pyrazol-1-yl]benzenesulfonamide]
- improvement in sinus pain [1]: marked improvement in their sinus pain
- resolution of sore throat [2]: complete resolution of their sore throat within two days
- improvement in throat pain [3]: marked improvement in their throat pain

SMILES: Oc1ccc(/C=C/c2cc(O)cc(O)c2)cc1 [resveratrol]
- relief of throat discomfort [4]: rapid relief of their throat discomfort
- bleeding in gums [5]: markedly decreased bleeding in their gums
- periodontal disease on examination [5]: improvement in periodontal disease is detected on examination
